AC50 data for 34 compounds are collected here from PubChem BioAssay AID977621 (Broad Institute, 2014).

As a reminder, the AC50 is the concentration at which the activity in the assay is half-maximal.

In assay [1] the test system is E. coli wild-type GFP strain growth, fluorescence, 24 h. Kind of assay: growth inhibition of wild-type GFP E. coli, dose response, H69 mutant RFP, cherry-pick (AID 977621).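 Also: wild-type GFP and H69 mutant RFP strains grown together 50/50 in each well.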
Assay [2] relates to E. coli H69 humanized mutant ribosome RFP strain growth, fluorescence, 24 h. The assay is described as above. As to conditions: test 2.
Setting [3] is: E. coli mixed culture, 24 h, measured here: total growth OD600, test 2.

Molecules are shown by their SMILES. Inconclusive results are not listed. Active and inactive are the calls of the source.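 The calls were made as follows: active = Wild-type ribosome reporter drop at least double the humanized mutant ribosome reporter drop, growth loss under a set limit; inconclusive = no clear call, values can overlap the other calls; inactive = the rest.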

As to `COc1ccc(-c2cn3cc(Cl)ccc3n2)cc1OC`, the AC50 is > 100 µM (inactive) in assay [1], 27.2 µM in assay [1] (setting [3]) and 31.4 µM in assay [2].
Take `CCC1=Nc2cc(C(=O)NCc3cccnc3)ccc2Sc2ccc(C)cc21`: the AC50 was > 100 µM (inactive) in assay [1] and greater than 100 µM in assay [2].
In the case of `O=C(Nc1ccc(Br)cc1)c1cccnc1N1CCCCC1`, the AC50 is 45.7 µM in assay [1] (setting [3]) and greater than 100 µM in assay [2].
The matching figures for `Cc1sc(NC(=O)CN2CCOCC2)nc1-c1ccc2c(c1)CCN2S(=O)(=O)c1ccccc1`: greater than 100 µM and 2.87 µM.
`COc1cc(OC)nc(Oc2ccccc2C(=O)Oc2ccc(C)cc2)n1`: the results for the AC50 in assay [1] (setting [3]) and in assay [2] were 50.4 µM and 51.1 µM, respectively.
For `CSc1nc2nc3c(cc2c(=O)n1-c1ccccc1C)CCCC3`, the AC50 in assay [1] (setting [3]) and in assay [2] was greater than 100 µM each time.
For the compound `CN(c1ccccc1)S(=O)(=O)c1cccc(NC(=O)CCN2C(=O)C3CCCCC3C2=O)c1` (stereo not given), the AC50 was > 100 µM (inactive) in assay [1] and greater than 100 µM in assay [2].
Take `C(=C(c1ccccc1)c1ccccc1)c1ccccn1`: the AC50 in assay [1] (setting [3]) and in assay [2] was greater than 100 µM throughout.
On to `COc1ccc(-c2nc(NC(C)=O)sc2-c2ccccc2)cc1`, for which the concentration at half-maximal activity (AC50) in assay [1] (setting [3]) turned out to be 44.1 µM; in assay [2], 49.1 µM.
The matching figures for `CCOC(=O)CN1C(=O)C(CC)Oc2ccc(Cl)cc21` (stereo not given): greater than 100 µM and 5.94 µM.
For `CCN(c1ccccc1)S(=O)(=O)c1cccc(C(=O)NCC(c2cccs2)N(C)C)c1` (stereo not given), the AC50 in assay [1] was > 100 µM (inactive); in assay [2], greater than 100 µM.
On to `Cc1ccccc1-n1c([C@@H]2C[C@H]2c2ccccc2)n[nH]c1=S`, for which the figures for the AC50 in assay [1] (setting [3]) and in assay [2] were 1.6 µM and 5.56 µM, respectively.
With `COc1ccc(NC(=O)C2CC3C=CC2C3)c([N+](=O)[O-])c1` (stereo not given), the AC50 in assay [1] is > 100 µM (inactive); in assay [2] it was greater than 100 µM.
For `C=C(C)Cn1c(=O)c2c(nc3n2CC(C)CN3Cc2ccccc2)n(C)c1=O` (stereo not given), the AC50 in assay [1] (setting [3]) and in assay [2] was greater than 100 µM throughout.
For the compound `O=c1c2cc(Br)ccc2[nH]c(=S)n1Cc1ccccc1`, the AC50 was 43.2 µM in assay [1] (setting [3]) and greater than 100 µM in assay [2].
As for `O=C(c1ccc(Cl)cc1)C1CCCN(Cc2cccc3cnccc23)C1` (stereo not given), the figures for the AC50 in assay [1] and in assay [2] were > 100 µM (inactive) and greater than 100 µM, respectively.
`CSc1c(-c2ccccn2)c(N)nn1C(=O)C1CC1`: the AC50 in assay [1] was > 100 µM (inactive); in assay [2], greater than 100 µM.
With `Cc1ccn2cc(-c3cccc(NC(=O)c4cccs4)c3)nc2c1`, the AC50 in assay [1] (setting [3]) and in assay [2] was greater than 100 µM each time.
With `COC(=O)c1ccc(CSc2nc3ccccc3s2)o1`, the AC50 in assay [2] was 39 µM.
Turning to `CCCc1c(C(=O)Nc2ccc(OC)cc2)cnn1-c1ccccc1`, the values for the AC50 in assay [1], in assay [1] (setting [3]) and in assay [2] were > 100 µM (inactive), 38.1 µM and greater than 100 µM, respectively.
Regarding `CN1CCN(CC(=O)c2cc(C(C)(C)C)c(O)c(C(C)(C)C)c2)CC1`, the AC50 in assay [2] was greater than 100 µM.
Still for that read-out and setting: under `Cc1ccccc1S(=O)(=O)c1cc2ccccc2nc1N` stands greater than 100 µM; under `COc1ccccc1-c1noc2ncnc(Nc3cccc(C)c3C)c12`, greater than 100 µM.
Turning to `Cc1noc2ncnc(SCc3ccc(C(F)(F)F)cc3)c12`, the AC50 in assay [2] is greater than 100 µM.
On the same count and under the same terms, under `[O-][n+]1ccccc1/C=C/c1ccccc1` stands greater than 100 µM; under `O=C(CSCc1cnn(-c2ccccc2)c1-n1cccc1)NCc1cccnc1`, 2.13 µM.
`Cc1ccc2c(N)c(C(=O)c3ccccc3)sc2n1` gave an AC50 in assay [2] of 50.8 µM.
Same read-out and setting: in the case of `COc1ccccc1NC(=O)CSc1ncc(CO)n1Cc1ccc(F)cc1` it was greater than 100 µM; in that of `CSc1nnnn1-c1ccc(Cl)cc1`, greater than 100 µM; in that of `CC(C)(C)N(Cc1ccccc1)C(=O)COC(=O)Cn1cnc2ccccc2c1=O`, greater than 100 µM.
The same measure, in the same setting: in the case of `Cc1ccccc1-c1nc(CS(=O)(=O)CC(=O)N2CCCCC2)c(C)o1` it was greater than 100 µM; in that of `CCOc1ccc(NC(=O)CCc2nnc3ccc(N4CCC(C)CC4)nn23)cc1`, 51.2 µM; in that of `CSc1ccc(CN(C)C(=O)C(c2ccccc2)c2ccccc2)cc1`, 50.1 µM.
The compound `O=C(Nc1cccc(Oc2ccc3c(c2)C(=O)NC3=O)c1)c1cccs1` had an AC50 in assay [2] of 13 µM.
